# From patent US20100016244A1, “D-GLUCOPYRANOSE 1-[3,5-BIS (1,1-DIMETHYLETHY)-4-HYDROXYBENZOATE] AND ITS DERIVATIVES, PREPARATION AND USE THEREOF” (priority 2006, published 2010)
# What was measured:
# HIV [1] = conditions: cited from earlier work
# [2] = Solubility in water (tests 1-3); conditions: for pH: after stirring for 48 H at 23° C. in water
# [3] = tested on: VHS (Herpes Simplex Virus); conditions: from FR 2 668 931; cited from earlier work
# HIV [4] = tested on: HIV
# enveloped-viruses = experiment: Active concentration on enveloped-viruses; conditions: BHT versus RDW 031
# physchem = conditions: water, thermodynamic from solid
# [5] = Studies on rats (progeny, mutagenic effect)
# [6] = tested on: VHS (Herpes Simplex Virus); experiment: Virucidal activity on VHS (Herpes Simplex Virus), decrease in log by concentration and contact time; conditions: for Decrease expressed in log: test n° 4
# Protocol: Results of the tests conducted in the laboratory of Prof. Chiron, (Faculty of Pharmacy of Tours): [table] hypothesis: 10 mg/8 ml (solubility check) Stock-solution: 33.47 mg/24.10 ml (x 1.11 C) i.e.: 11.11 mg/8 ml [table]
compound,measurement,setting,value
"CC(C)(C)c1cc(C(=O)OCCOCCOCCOCCOCCOCCOCCOCCO)cc(C(C)(C)C)c1O [AVF1, 3.5-di-tert-butyl-4-hydroxybenzoate octa-oxy-ethylene glycol]",decrease of HIV's infectivity,HIV [1],7 log
"CC(C)(C)c1cc(C(=O)O)cc(C(C)(C)C)c1O [BG4, 3,5-di-t-butyl-4-hydroxybenoic acid]",Solubility 12 H at 23° C.,"[2]; Test No 2, water, RDW031 batch RV 34",insoluble
same,Solubility after stirring for 48 H at 23° C.,"[2]; Test no 3, 1 g + 100 ml H2O, RDW031 batch RV 41, BG4 from SIGMA-ALDRICH",130 µg/mL
same,pH,[2]; Test no 3,pH = 5.6
same,Solubilité ½ H à 23° c.,"[2]; water, ½ H at 23° C.",No measurable
same,Solubility ½ H at 100° C.,"[2]; water, ½ H at 100° C., no desolubilization at room temperature",0.84 g/litre (no
same,concentration required for effectiveness on VHS,[3],0.5%
same,reduction of the virulence of a HIV culture,HIV [4],5 log
"Cc1cc(C(C)(C)C)c(O)c(C(C)(C)C)c1 [BHT, butylhydroxytoluene]",molar active concentration relative to RDW 031,enveloped-viruses,100 times
CC(C)(C)c1cc(C(=O)OC2O[C@H](CO)[C@@H](O)[C@H](O)[C@H]2O)cc(C(C)(C)C)c1O (stereo partly drawn) [RDW031],pH,[2]; Test no 3,pH = 5.9
same,solubility at 0.5 h,physchem; 23 °C,40 µg/mL
same,solubility at 12 h,physchem; 23 °C,1200 µg/mL
same,solubility at 0.5 h,physchem; 100 °C,1080 µg/mL
same,effects on progeny and mutagenic effect,[5],never shown any detectable effects
same,reduction of the virulence of a HIV culture,HIV [4],5 log
same,"active concentration, starting",[6],≥ 0.0625%
same,Reduction expressed in log,"[6]; 0.00125 mg/ml (1/1000), contact time 120 min",0.31 log
same,Reduction expressed in log,"[6]; 0.00250 mg/ml (1/500), contact time 60 min",1.06 log
same,Reduction expressed in log,"[6]; 0.00250 mg/ml (1/500), contact time 120 min",1.15 log
same,Reduction expressed in log,"[6]; 0.00625 mg/ml (1/200), contact time 60 min",1.06 log
same,Reduction expressed in log,"[6]; 0.02500 mg/ml (1/50), contact time 30 min",0.31 log
same,Reduction expressed in log,"[6]; 0.06250 mg/ml (1/20), contact time 30 min",0.21 log
same,Reduction expressed in log,"[6]; 0.25000 mg/ml (⅕), contact time 15 min",0.00 log
same,Reduction expressed in log,"[6]; 0.62500 mg/ml (½), contact time 15 min",3.68 log
same,active concentration expressed,[6]; converted from % concentration,≥ 0.0015 mol
same,Decrease expressed in log,"[6]; 0.17028 mg/ml (⅕), contact time 15 min",0.00 log
same,Decrease expressed in log,"[6]; 0.17028 mg/ml (⅕), contact time 30 min",0.00 log
same,Decrease expressed in log,"[6]; 0.17028 mg/ml (⅕), contact time 60 min",0.00 log
same,Decrease expressed in log,"[6]; 0.17028 mg/ml (⅕), contact time 120 min",0.00 log
same,Decrease expressed in log,"[6]; 0.42570 mg/ml (½), contact time 60 min",0.00 log
same,Decrease expressed in log,"[6]; 0.42570 mg/ml (½), contact time 120 min",1.48 log
same,Decrease expressed in log,"[6]; 0.85140 mg/ml (pur), contact time 15 min",1.25 log
same,Decrease expressed in log,"[6]; 0.85140 mg/ml (pur), contact time 30 min",1.86 log
same,Decrease expressed in log,"[6]; 0.85140 mg/ml (pur), contact time 60 min",2.15 log
same,Decrease expressed in log,"[6]; 0.85140 mg/ml (pur), contact time 120 min",2.32 log
same,effect on polio virus (naked-virus),polio virus,no effect
